Results on one substance are retold here after US11779620B2 (priority 2020, dated 2023).

Assay [1] deals with human PBMC cultures. As to the kind of experiment: Cytokine, chemokine and growth factor levels in PBMC culture supernatants (medicinal mushroom blend study). The class given is cell-based. As to conditions: LPS-treated control cultures (10 ng/mL), 24 h, mean±SD. As to the method: The powder was handled in the following manner, using pyrogen-free disposables: A 100 mg/mL suspension was prepared in phosphate-buffered saline (PBS) and allowed to rehydrate and extract aqueous compounds for 1 hour at 20° C. under gentle agitation. The suspension was centrifuged at 400 g for 10 minutes, and the aqueous fraction harvested. Ethanol (95%) was added to the pellet and vortexed, and extraction of non-aqueous, ethanol-soluble compounds allowed for 1 hour at 20° C. under gentle agitation. The suspension was centrifuged at 400 g for 10 minutes, and the ethanol fraction harvested. The remaining solid pellet was resuspended in PBS. The aqueous and ethanol fractions were filtered through a 0.22-micron syringe filter before adding to cell cultures. The solid fraction was passed through homogenization spin columns (QIAshredder, Qiagen, […].), but were not filtered through a 0.22-micron filter. From each fraction, serial dilutions were made in pyrogen-free physiological saline. See also FIG. 9.
Peripheral venous blood was drawn from three healthy human donors upon written informed consent, as approval by the Sky Lakes Medical Center Institutional Review Board, Federalwide Assurance 2603. The blood was drawn into heparin vacutainer vials, and the peripheral blood mononuclear cells (PBMC) isolated using Lympholyte Poly by centrifugation for 35 minutes at 400×g. The PBMC were washed twice in PBS, counted, and the density adjusted to establish cultures with a cell density of 10^6/mL, using Roswell Park Memorial Institute (RPMI) 1640 medium containing penicillin, streptomycin, and fetal bovine serum.
The highly inflammatory lipopolysaccharide (LPS) from Salmonella enterica was used as a positive control for immune-cell activation. Serial dilutions of products or LPS (10 ng/mL) were added to cultures at a volume of 20 μL, and cultures were then incubated at 37° C., 5% CO2 for 24 hours. […] Untreated negative control cultures consisted of PBMC exposed to phosphate-buffered saline in the absence of test products. All treatments, including each dose of test product and each positive and negative control, were tested in triplicate. After 24 hours, cells were transferred to V-bottom microtiter plates, washed in PBS containing bovine serum albumin and sodium azide, and stained for 10 minutes with fluorochrome-labeled anti-CD3, anti-CD56, and anti-CD69 monoclonal antibodies at the recommended concentration. PBMC were then fixed in formalin. The fluorescence intensities for CD3, CD56, and CD69 were measured by flow cytometry, using an Attune acoustic-focusing flow cytometer (Thermo Fisher Scientific, Waltham, Mass., USA). Data analysis utilized gating on forward and side scatter to evaluate CD69 expression on lymphocyte versus monocyte/macrophage subsets. The lymphocyte subpopulation was further analyzed for CD69 expression on CD3−CD56+ NK cells, CD3+CD56+ NKT cells, CD3+CD56− T cells, and non-NK non-T lymphocytes.
After 24 hours of incubation, after transfer to V-bottom microtiter plates and before cells were stained for flow cytometry analysis, the culture supernatants were harvested from the PBMC cultures described above. Levels of cytokines, chemokines, and growth factors were quantified using Bio-Plex protein arrays (Bio-Rad Laboratories Inc., Hercules Calif., USA) and utilizing xMAP technology (Luminex, Austin, Tex., USA).

The test system of assay [2] is human PBMC cultures. As to the kind of experiment: Induction of CD69 activation marker on immune cell subsets in PBMC cultures (Trametes versicolor study). The format is cell-based. The following applies: 24 h, positive controls LPS 10 ng/mL, IL-2 100 IU/mL, mean±SD.

For the substance lipopolysaccharide [LPS], in the assay on human PBMC cultures [1], the G-CSF level was 1,458±58 pg/mL, the IFN-γ level came to 71 ± 2 pg/mL, the IL-1ra level is on record as 8,134±473 pg/mL and the IL-1β level was found to be 772 ± 28 pg/mL. Also, in the assay with human PBMC cultures [1], the IL-10 level was determined as 301 ± 15 pg/mL, the MCP-1 level is listed as 2,052±35 pg/mL, the MIP-1α level is recorded as 2,116±0 pg/mL and the MIP-1β level is listed as 6,497±814 pg/mL. In addition, in the assay with human PBMC cultures [1], the TNF-α level is given as 7,073±185 pg/mL, the VEGF level was determined as 421 ± 17 pg/mL and the bFGF level turned out to be 221 ± 8 pg/mL. In the assay with human PBMC cultures [2], the “CD69 percent change compared to untreated control cultures, NK cells” value is 114±10%; the “CD69 percent change compared to untreated control cultures, NKT cells” value worked out at 54±8.3%; the “CD69 percent change compared to untreated control cultures, T lymphocytes” value is reported as 19±2.1%.
